The test system of test [1] is Swiss 3T3 mouse fibroblast cells. Kind of test: ROS scavenging assay (DCFH-DA dye, oxidation initiated by FeSO4). The conditions noted are these: for IC50: Mus musculus, Swiss-3T3, DCFH-DA, FeSO4, 1 hr at 37° C., fluorescence 485/520 nm, called SC50, read-out: % Inhibition (IC50 μg/ml) ROS scavenging in Swiss 3T3 fibroblast cell line. Type of test: cell-based. Here is the method: The DPPH free radical scavenging activity is studied based on the stable free radical 1,1-diphenyl-2-picryl hydrazyl radical (DPPH) which, in presence of an antioxidant in organic/aqueous organic media is bleached and the decrease of absorbance of DPPH is measured spectrophotometrically at 516 nm. The assay mixture containing DPPH methanolic solution & methanolic solutions of various concentrations of the antioxidant is incubated at 37 degree C. for 30 minutes. The reduction in absorbance is measured spectrophotometrically at 516 nm. The free radical scavenging activity is expressed as SC50, the concentration of the sample required for 50% of the free radical to be scavenged. The ROS scavenging assay is based on a cell permeable, non-fluorescent dye, de-esterified DCFH-DA (dichloro fluorescein diacetate) being converted to dichlorofluorescein upon oxidation by the reactive oxygen species. […] Swiss 3T3 mouse fibroblast cells are cultured in DMEM medium with 10% FBS. 1×10^5 cells per well are plated into a 96 well black plate. After treatment with varying concentrations of the samples, the cells are exposed to DCFH-DA dye and oxidation initiated by FeSO4. […] The fluorescence intensity is directly proportional to the ROS scavenging activity of the samples. The activity is expressed as SC50 which is the concentration required for 50% scavenging of ROS.

A short description of test [2]: DPPH free radical scavenging assay. Type of test: biochemical. The conditions noted are these: methanolic solution, 37 degree C. for 30 minutes, absorbance at 516 nm; called SC50. The procedure:
The DPPH free radical scavenging activity is studied based on the stable free radical 1,1-diphenyl-2-picryl hydrazyl radical (DPPH) which, in presence of an antioxidant in organic/aqueous organic media is bleached and the decrease of absorbance of DPPH is measured spectrophotometrically at 516 nm. The assay mixture containing DPPH methanolic solution & methanolic solutions of various concentrations of the antioxidant is incubated at 37 degree C. for 30 minutes. The reduction in absorbance is measured spectrophotometrically at 516 nm. The free radical scavenging activity is expressed as SC50, the concentration of the sample required for 50% of the free radical to be scavenged. The ROS scavenging assay is based on a cell permeable, non-fluorescent dye, de-esterified DCFH-DA (dichloro fluorescein diacetate) being converted to dichlorofluorescein upon oxidation by the reactive oxygen species. The scavenging activity of sample is indicated by the decrease in fluorescence (wavelength 485/520 nm). Swiss 3T3 mouse fibroblast cells are cultured in DMEM medium with 10% FBS. […] After incubation for 1 hr at 37° C., the fluorescence reading is taken at wavelength 485/520 nm (Fluostar optima microplate reader). The fluorescence intensity is directly proportional to the ROS scavenging activity of the samples. The activity is expressed as SC50 which is the concentration required for 50% scavenging of ROS.

Data on 3 compounds can be found in patent US20090318565A1, “Novel Compositions for the Enhancement of the Anti-oxidant Potential of Hydrogenated Curcuminoids or Combinations Thereof” (priority 2008, published 2009).

Values after ≈ are worked out from the molar mass of the structure shown.

Turning to `O=C(CCc1ccc(O)cc1)CC(=O)CCc1ccc(O)cc1` [STR#1, 1,7-Bis(4-hydroxyphenyl)-3,5-heptanedione], the “pro-oxidant properties of hydrogenated derivative against bisdemethoxycurcumin” value in test [1] (upon hydrogenation) is “enhanced”.

On to `COc1cc(CCC(=O)CC(=O)CCc2ccc(O)c(OC)c2)ccc1O` [STR#II, 1,7-Bis(4-hydroxy-3-methoxyphenyl)-3,5-heptanedione], for which the IC50 in test [1] was 1.35 µg/mL (≈ 3.62 µM). For the same compound, in test [1] (upon hydrogenation), the “anti-oxidant activity of hydrogenated derivative against curcumin” value is reported as “enhanced”.

For `COc1cc(CCC(=O)CC(=O)CCc2ccc(O)cc2)ccc1O` [STR#V, 1-(4-hydroxy-3-methoxyphenyl)-7-(4-hydroxyphenyl)-3,5-heptanedione], the IC50 in test [1] worked out at 4.5 µg/mL (≈ 13.1 µM). Also, in test [1] (hydrogenated derivative against demethoxycurcumin), the “enhancement of anti-oxidant properties upon hydrogenation (ROS scavenging activity)” value was “about 10 fold”. This compound also had an SC50 in test [2] of 3.0 µg/mL.
